From PMC8053108, “RPA2 winged-helix domain facilitates UNG-mediated removal of uracil from ssDNA; implications for repair of mutagenic uracil at the replication fork” (Nucleic Acids Research, 2021)

Tested on: UNG2 or N-terminally truncated versions
Test: Uracil excision in presence of increasing amounts of purified free WH domain
Format: biochemical, human
Settings: 0.4 nM enzyme, 0-50 μM purified WH domain, 100 nM DNA
Protocol: 3′-FAM-labelled, PAGE-purified oligonucleotide substrates were from Sigma-Aldrich. Unless otherwise indicated, the substrate (25 nt) harboured uracil at position 10 in a polyC sequence to avoid secondary structures (U10-25*: […]-FAM). Double-stranded substrate was generated by annealing (heating followed by slow cooling) U10-25* to a non-labelled complementary oligo (A16-25: […]). All assays were performed at 22°C in 10 mM Tris–HCl pH 7.5, 50 mM NaCl, 1 mM DTT, 0.1 mM EDTA, 0.5 mg/ml BSA.
Varying amounts of UNG were then added, and the mixtures incubated for 10 min in a water bath. To avoid unspecific interactions and binding of enzyme and DNA to the assay tube surface, low-DNA binding tubes and excess of BSA was used in all reactions. Reactions were quenched and AP sites cleaved in 10% piperidine at 90°C for 20 min. Samples were dried by vacuum centrifugation and suspended in formamide-containing loading buffer. Product and substrate were separated in 12% PAGE/7M urea–0.5× TBE gels, bands visualised in ChemiDoc™ Imager (Bio-Rad) and quantified by Image Lab software (Bio-Rad). Importantly, all assays in which two parameters were compared (e.g. RPA-coated versus naked substrate or WT versus mutated protein) were performed in parallel with the exact same DNA/protein dilutions.

Substance: WH domain: purified RPA2-WH domain, RPA2 residues 172-270
- effect on uracil excision from naked ss- and dsDNA substrates: little effect
- effect on uracil excision from RPA-bound ss- and dsDNA substrates (RPA-bound): markedly reduced
